Source: ChEMBL document CHEMBL5705887, “Distinct concentration-dependent effects of the polo-like kinase 1-specific inhibitor GSK461364A, including differential effect on apoptosis” (Cancer Res, 2009)
Activity calls are given as the source filed them. The calls are words filed in the database; no cut-off is given here.

Columns and labels:
SW-620 = test: Antiproliferative activity against human SW620 cells assessed as viable cell signal at maximum growth inhibition incubated for 72 hrs by celltiter-glo assay relative to control; format: functional
SAOS-2 [1] = test: Antiproliferative activity against human SAOS-2 cells assessed as viable cell signal at maximum growth inhibition incubated for 72 hrs by celltiter-glo assay relative to control; format: functional
MCF7 = test: Antiproliferative activity against human MCF7 cells assessed as of viable cell signal at minimum maximum cell growth incubated for 72 hrs by celltiter-glo assay relative to control; format: functional
PANC-08-13 = test: Antiproliferative activity against human PANC-08-13 cells assessed as of viable cell signal at minimum maximum cell growth incubated for 72 hrs by celltiter-glo assay relative to control; format: functional
[2] = target: Serine/threonine-protein kinase PLK3 (Homo sapiens) (UniProt Q9H4B4); test: Inhibition of N-terminal his6-tagged recombinant human PLK3 (19 to 301 residues) expressed in baculovirus Sf21 insect cells at 10 uM relative to control
U2OS = test: Induction of mitotic arrest in human U2OS cells assessed as effect on pHH3 level at 10 to 250 nmol/L incubated for 19 hrs by ELISA analysis; format: functional, cell-based; details: dose 10-250 nmol/L
DU-145 = test: Antiproliferative activity against human DU-145 cells assessed as viable cell signal at maximum growth inhibition incubated for 72 hrs by celltiter-glo assay relative to control; format: functional
THP-1 = test: Antiproliferative activity against human THP-1 cells assessed as growth inhibition incubated for 72 hrs by celltiter-glo assay; format: functional
LoVo = test: Antiproliferative activity against human LoVo cells assessed as viable cell signal at maximum growth inhibition incubated for 72 hrs by celltiter-glo assay relative to control; format: functional
ZR-75-1 = test: Antiproliferative activity against human ZR-75-1 cells assessed as growth inhibition at > 250 nmol/L incubated for 72 hrs by celltiter-glo assay; format: functional, cell-based
MDA-MB-468 = test: Antiproliferative activity against human MDA-MB-468 cells assessed as of viable cell signal at minimum maximum cell growth incubated for 72 hrs by celltiter-glo assay relative to control; format: functional
HeLa = test: Antiproliferative activity against human HeLa cells assessed as viable cell signal at maximum growth inhibition incubated for 72 hrs by celltiter-glo assay relative to control; format: functional
OVCAR-8 = test: Antiproliferative activity against human OVCAR-8 cells assessed as of viable cell signal at minimum maximum cell growth incubated for 72 hrs by celltiter-glo assay relative to control; format: functional
[3] = target: Ribosomal protein S6 kinase alpha-1 (Rattus norvegicus) (UniProt Q63531); test: Inhibition of recombinant rat RSK1 at 10 uM relative to control
T47D = test: Antiproliferative activity against human T47D cells assessed as viable cell signal at maximum growth inhibition incubated for 72 hrs by celltiter-glo assay relative to control; format: functional
T-24 = test: Antiproliferative activity against human T24 cells assessed as of viable cell signal at minimum maximum cell growth incubated for 72 hrs by celltiter-glo assay relative to control; format: functional
A-427 = test: Antiproliferative activity against human A-427 cells assessed as of viable cell signal at minimum maximum cell growth incubated for 72 hrs by celltiter-glo assay relative to control; format: functional
COLO 205 [4] = test: Antitumor activity against human COLO 205 cells xenografted in ip dosed Nude mouse assessed as increase in pHH3 level measured at 24 to 48 hrs by […]; format: functional, organism-based; details: dose 50-100 mg/kg, time 24-48 hrs
HL-60 = test: Antiproliferative activity against human HL-60 cells assessed as growth inhibition incubated for 72 hrs by celltiter-glo assay; format: functional
MX1 = test: Antiproliferative activity against human MX1 cells assessed as viable cell signal at maximum growth inhibition incubated for 72 hrs by celltiter-glo assay relative to control; format: functional
NCI-H522 = test: Antiproliferative activity against human NCI-H522 cells assessed as of viable cell signal at minimum maximum cell growth incubated for 72 hrs by celltiter-glo assay relative to control; format: functional
[5] = tested on: Fibroblast growth factor receptor 1 (Homo sapiens), P11362 [V561M]; test: Inhibition of N-terminal his6-tagged recombinant human FGFR1 V561M mutant (456 to 765 residues) at 10 uM relative to control
COLO 205 [6] = test: Antiproliferative activity against human COLO 205 cells assessed as of viable cell signal at minimum maximum cell growth incubated for 72 hrs by celltiter-glo assay relative to control; format: functional
Calu-3 = test: Antiproliferative activity against human Calu-3 cells assessed as of viable cell signal at minimum maximum cell growth incubated for 72 hrs by celltiter-glo assay relative to control; format: functional
HCT-116 = test: Antiproliferative activity against human HCT-116 cells assessed as of viable cell signal at minimum maximum cell growth incubated for 72 hrs by celltiter-glo assay relative to control; format: functional
COLO 205 [7] = test: Antitumor activity against human COLO 205 cells xenografted in Nude mouse assessed as tumor growth delay time at 50 mg/kg, ip administered every 2 to 4 days; format: functional; details: time 2-4 day
NCI-H1155 = test: Antiproliferative activity against human NCI-H1155 cells assessed as of viable cell signal at minimum maximum cell growth incubated for 72 hrs by celltiter-glo assay relative to control; format: functional
Raji = test: Antiproliferative activity against human Raji cells assessed as viable cell signal at maximum growth inhibition incubated for 72 hrs by celltiter-glo assay relative to control; format: functional
SCLC = test: Antiproliferative activity against human SCLC cells assessed as growth inhibition incubated for 72 hrs by celltiter-glo assay; format: functional
RKO = test: Antiproliferative activity against human RKO cells assessed as of viable cell signal at minimum maximum cell growth incubated for 72 hrs by celltiter-glo assay relative to control; format: functional
SAOS-2 [8] = test: Antiproliferative activity against human SAOS-2 cells assessed as growth inhibition incubated for 72 hrs by celltiter-glo assay; format: functional
HT-1080 = test: Antiproliferative activity against human HT-1080 cells assessed as viable cell signal at maximum growth inhibition incubated for 72 hrs by celltiter-glo assay relative to control; format: functional
SK-MEL-5 = test: Antiproliferative activity against human SK-MEL-5 cells assessed as viable cell signal at maximum growth inhibition incubated for 72 hrs by celltiter-glo assay relative to control; format: functional
OVCAR-3 = test: Antiproliferative activity against human OVCAR-3 cells assessed as growth inhibition incubated for 72 hrs by celltiter-glo assay; format: functional
SK-OV-3 = test: Antiproliferative activity against human SK-OV-3 cells assessed as growth inhibition incubated for 72 hrs by celltiter-glo assay; format: functional
OVCAR-4 = test: Antiproliferative activity against human OVCAR-4 cells assessed as of viable cell signal at minimum maximum cell growth incubated for 72 hrs by celltiter-glo assay relative to control; format: functional
[9] = target: Calcium/calmodulin-dependent protein kinase type II subunit beta (Homo sapiens) (UniProt Q13554); test: Inhibition of recombinant human CaMKII-beta at 10 uM relative to control
NCI-H1299 = test: Antiproliferative activity against human NCI-H1299 cells assessed as of viable cell signal at minimum maximum cell growth incubated for 72 hrs by celltiter-glo assay relative to control; format: functional
HT-29 = test: Antiproliferative activity against human HT-29 cells assessed as growth inhibition incubated for 72 hrs by celltiter-glo assay; format: functional

Fibroblast growth factor receptor 1 (Homo sapiens), P11362 [V561M], sequence (P11362 whole entry V561M, the tested form may be a part): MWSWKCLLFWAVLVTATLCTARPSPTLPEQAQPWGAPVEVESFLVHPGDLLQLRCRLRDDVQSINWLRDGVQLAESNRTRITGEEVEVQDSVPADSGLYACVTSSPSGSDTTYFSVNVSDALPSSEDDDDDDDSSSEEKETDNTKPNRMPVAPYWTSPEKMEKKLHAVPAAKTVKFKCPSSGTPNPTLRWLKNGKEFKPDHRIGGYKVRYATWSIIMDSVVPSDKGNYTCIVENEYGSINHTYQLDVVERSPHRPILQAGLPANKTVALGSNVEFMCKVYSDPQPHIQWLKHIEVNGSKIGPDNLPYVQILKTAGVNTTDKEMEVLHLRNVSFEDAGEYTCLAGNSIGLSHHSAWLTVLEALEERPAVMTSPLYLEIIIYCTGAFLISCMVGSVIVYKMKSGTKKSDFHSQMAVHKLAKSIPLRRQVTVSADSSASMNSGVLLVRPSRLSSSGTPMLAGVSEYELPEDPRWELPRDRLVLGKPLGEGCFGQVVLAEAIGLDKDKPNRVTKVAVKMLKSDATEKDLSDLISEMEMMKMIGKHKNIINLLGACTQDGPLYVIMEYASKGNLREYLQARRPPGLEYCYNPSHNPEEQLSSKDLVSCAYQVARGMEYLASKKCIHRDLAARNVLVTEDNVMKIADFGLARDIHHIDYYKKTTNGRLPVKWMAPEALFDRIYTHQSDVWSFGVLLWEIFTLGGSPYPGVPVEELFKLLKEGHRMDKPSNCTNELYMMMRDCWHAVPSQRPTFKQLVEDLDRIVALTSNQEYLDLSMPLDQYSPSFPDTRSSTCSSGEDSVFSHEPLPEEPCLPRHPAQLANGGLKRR
Ribosomal protein S6 kinase alpha-1 (Rattus norvegicus), sequence (Q63531 whole entry): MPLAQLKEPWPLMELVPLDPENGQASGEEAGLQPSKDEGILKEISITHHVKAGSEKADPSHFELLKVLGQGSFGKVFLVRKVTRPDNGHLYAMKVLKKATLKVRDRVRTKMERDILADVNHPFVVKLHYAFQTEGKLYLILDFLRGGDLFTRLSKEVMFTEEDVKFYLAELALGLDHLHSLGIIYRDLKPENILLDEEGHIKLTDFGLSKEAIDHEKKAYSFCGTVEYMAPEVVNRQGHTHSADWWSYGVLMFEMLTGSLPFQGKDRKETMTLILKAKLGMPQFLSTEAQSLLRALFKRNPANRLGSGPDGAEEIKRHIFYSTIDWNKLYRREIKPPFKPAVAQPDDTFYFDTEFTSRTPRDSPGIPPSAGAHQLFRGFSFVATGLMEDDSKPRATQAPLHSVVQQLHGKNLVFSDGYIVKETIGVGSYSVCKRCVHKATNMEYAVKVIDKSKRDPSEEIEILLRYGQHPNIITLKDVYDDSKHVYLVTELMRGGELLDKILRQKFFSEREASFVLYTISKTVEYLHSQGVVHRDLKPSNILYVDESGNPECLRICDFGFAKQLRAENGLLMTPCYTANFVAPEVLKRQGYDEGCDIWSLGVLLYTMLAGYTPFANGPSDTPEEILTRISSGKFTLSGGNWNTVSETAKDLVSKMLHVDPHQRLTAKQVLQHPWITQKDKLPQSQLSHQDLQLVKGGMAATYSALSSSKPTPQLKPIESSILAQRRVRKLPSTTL
Serine/threonine-protein kinase PLK3 (Homo sapiens), sequence (Q9H4B4 whole entry, looked up, the tested form may be a part): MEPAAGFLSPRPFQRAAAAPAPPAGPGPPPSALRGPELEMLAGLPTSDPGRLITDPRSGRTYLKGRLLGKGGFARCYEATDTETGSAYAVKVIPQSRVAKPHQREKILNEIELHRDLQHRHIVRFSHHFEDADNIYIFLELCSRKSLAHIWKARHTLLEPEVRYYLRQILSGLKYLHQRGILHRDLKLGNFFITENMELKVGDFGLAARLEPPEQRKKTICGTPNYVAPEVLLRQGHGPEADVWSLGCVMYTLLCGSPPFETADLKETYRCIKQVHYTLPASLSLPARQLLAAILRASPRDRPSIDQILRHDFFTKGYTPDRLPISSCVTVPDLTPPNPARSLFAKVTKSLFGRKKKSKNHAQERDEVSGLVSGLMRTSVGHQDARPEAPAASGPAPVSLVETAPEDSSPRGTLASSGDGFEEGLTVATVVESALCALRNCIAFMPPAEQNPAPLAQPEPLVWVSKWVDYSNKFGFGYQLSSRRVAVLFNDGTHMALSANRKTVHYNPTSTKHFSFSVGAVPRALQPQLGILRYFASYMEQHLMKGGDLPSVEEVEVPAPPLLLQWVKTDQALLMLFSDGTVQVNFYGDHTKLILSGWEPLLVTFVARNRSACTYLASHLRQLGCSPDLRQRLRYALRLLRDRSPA
Calcium/calmodulin-dependent protein kinase type II subunit beta (Homo sapiens), sequence (Q13554 whole entry): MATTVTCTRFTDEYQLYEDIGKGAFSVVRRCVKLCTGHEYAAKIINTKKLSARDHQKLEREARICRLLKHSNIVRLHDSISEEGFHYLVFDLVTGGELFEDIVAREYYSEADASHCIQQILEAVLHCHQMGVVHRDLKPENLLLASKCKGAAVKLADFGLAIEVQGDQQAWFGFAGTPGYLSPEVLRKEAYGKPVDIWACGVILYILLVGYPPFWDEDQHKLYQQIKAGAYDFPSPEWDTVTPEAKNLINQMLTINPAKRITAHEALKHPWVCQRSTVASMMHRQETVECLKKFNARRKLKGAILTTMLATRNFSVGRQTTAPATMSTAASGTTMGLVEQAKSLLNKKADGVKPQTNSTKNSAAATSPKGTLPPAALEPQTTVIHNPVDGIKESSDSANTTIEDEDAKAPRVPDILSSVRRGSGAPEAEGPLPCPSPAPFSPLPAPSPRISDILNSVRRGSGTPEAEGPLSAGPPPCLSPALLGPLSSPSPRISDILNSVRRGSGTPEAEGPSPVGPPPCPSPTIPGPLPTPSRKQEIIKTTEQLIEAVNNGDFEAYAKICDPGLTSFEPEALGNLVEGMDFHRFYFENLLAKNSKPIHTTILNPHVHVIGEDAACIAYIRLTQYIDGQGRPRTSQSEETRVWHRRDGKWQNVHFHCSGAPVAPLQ

For `C[C@@H](Oc1cc(-n2cnc3ccc(CN4CCN(C)CC4)cc32)sc1C(N)=O)c1ccccc1C(F)(F)F` [GSK-461364], the Emax (SW-620) was 634%, the Emax (SAOS-2 [1]) was 403% and the Emin (MCF7) was 125.4%. For the same compound, the Emin (PANC-08-13) was 131.3%, the inhibition [2] was 64% and the Activity (U2OS) was “Active”. The Emax (DU-145) was 500%, the GI50 (THP-1) was 11.8 nM and the Emax (LoVo) was 400%. For the same compound, the Activity (ZR-75-1) was “Active”, the Emin (MDA-MB-468) was 182.2% and the Emax (HeLa) was 406%. The Emin (OVCAR-8) was 46.5%, the inhibition [3] was 87% and the Emax (T47D) was 320%. The Emin (T-24) was 109%, the Emin (A-427) was 15.4% and the Activity (COLO 205 [4]) was “Dose-Dependent Effect”. The GI50 (HL-60) was 17.5 nM, the Emax (MX1) was 498% and the Emin (NCI-H522) was 125%. It also gave an inhibition [5] of 62%, an Emin (COLO 205 [6]) of 102.6% and an Emin (Calu-3) of 115.6%. It also gave an Emin (HCT-116) of 157.3%, a Time (COLO 205 [7]) of 39 days and an Emin (NCI-H1155) of 119.2%. For the same compound, the Emax (Raji) was 434%, the GI50 (SCLC) was 17.4 nM and the Emin (RKO) was 218%. It also gave a GI50 (SAOS-2 [8]) of 14.2 nM, an Emax (HT-1080) of 223% and an Emax (SK-MEL-5) of 258%. The GI50 (OVCAR-3) was 12.9 nM, the GI50 (SK-OV-3) was 28.9 nM and the Emin (OVCAR-4) was 164.7%. It also gave an inhibition [9] of 56%, an Emin (NCI-H1299) of 44.4% and a GI50 (HT-29) of 8.1 nM.
